“Also recorded” adds a separate entry of the source. Where two headings read alike, the source gives them in different places.

Assay [1] concerns the target 14-3-3ζ/p27 (Homo sapiens, UniProt P46527+P63104). Description: HTRF dose-response assay on 14-3-3ζ/p27. Format: binding. As to conditions: for Selectivity between 14-3-3γ/SLP76 and 14-3-3ζ/p27 (in words): comparison of HTRF dose-responses; for EC50: stabilisation, same FRET pair, EC50 estimated from fit, read-out: HTRF EC50 14-3-3ζ/p27. The procedure:
(§1) 384 logistic plates were prefilled with 40 μL of compounds at 10 mM, 100% DMSO in column 3. Columns 1, 2 and 4 to 22 were filled with 20 μL of 100% DMSO with a Multidrop Dispenser (ThermoScientific). 2-Fold dilutions of the compounds were carried over from column 3 to 22, with a CyBio FeliX liquid handler (analytikjena). 2 μL of R18 peptide at 20 μM was added to columns 23 and 24 of the Corning 384-well 3574 final assay plates with a Multidrop Dispenser (ThermoScientific). 40 μL of protein mixture, containing Tb labelled 14-3-3γ at 1 nM and AF647 labelled SLP76 at 600 nM in assay buffer (50 mM Tris pH 7.5, 150 mM NaCl, 5 mM MgCl2, 0.05% v/v Tween-20) were added with a Multidrop Dispenser (ThermoScientific) into the Corning 384-well 3574 final assay plates. 2 μL of compounds along with the DMSO control were then transferred with a CyBio FeliX liquid handler (analytikjena) from the 384 logistic plates to the final Corning 384-well 3574 assay plates. […] The dose–response on the first 64 compounds was performed in singlet from a 500 μM top concentration. The repetition on the best 16 compounds was performed in duplicates from a 250 μM top concentration. A dose–response assay on an unrelated 14-3-3ζ/p27 HTRF protein pair was performed as described above. Incubation, data acquisition and normalisation were performed as described above. For EC50 estimation, the data were fitted with a “log(agonist) vs. response (three parameters)” model on GraphPad Prism version 8.1.1 for Windows, GraphPad Software, La Jolla California USA, www.graphpad.com. In the case of duplicates, each data point is the average of a duplicate measurement, standard deviation is reported as error bars.

In assay [2] the target is T1, 14-3-3γ/SLP76 (Homo sapiens, UniProt P61981+Q13094). Briefly: HTRF dose-response assay on 14-3-3γ/SLP76. As to conditions: stabilisation; 14-3-3γ-Tb 1 nM, SLP76-AF647 600 nM, 5% DMSO; EC50 estimated from fit; read-out: HTRF EC50 14-3-3γ/SLP76. Format: binding. The protocol:
384-Well logistic plates were prefilled with 2 μL of compounds at 2 mM, 100% DMSO, except for columns 1, 2, 23 and 24. Columns 1, 2 were filled with 2 μL of DMSO while columns 23, 24 were filled with 2 μL of the 14-3-3 inhibitor R18 at 20 μM using a Multidrop Dispenser (ThermoScientific). Next, 40 μL of protein mixture containing Tb-labelled 14-3-3γ at 1 nM and AF647 labelled SLP76 at 600 nM in assay buffer (50 mM Tris pH 7.5, 150 mM NaCl, 5 mM MgCl2, 0.05% v/v Tween-20) were added using a Multidrop Dispenser (ThermoScientific). […] To perform the assay, 30 μL volumes were then transferred using a Biomek FX^P Automated Workstation (Beckman Coulter) into Corning 384-well 3574 assay plates. The plates were incubated at room temperature with gentle shaking for 4 h. Finally, the data were collected on a PHERAstar FSX plate reader (BMG Labtech) with an λex 337 nm, λem 665 nm and 620 nm HTRF filter setting. The data were exported in IDBS ActivityBase (IDBS) where they were normalised setting the R18 negative control as 100% inhibition and the DMSO control as 0%. Negative percentage values were therefore associated with a stabilisation of the 14-3-3γ/SLP76 interaction. The threshold of −20% inhibition (or 20% stabilisation) was chosen to select the hits to follow up. The selected hits were retested on 14-3-3γ/SLP76 and were also tested against an unrelated protein pair (IL-17/receptor) in a similar assay setup. […] All the assays were performed as described above.
as §1

Assay [3] deals with T1, 14-3-3γ/SLP76. Description: Orthogonal SPR assay, compound flowed with SLP76 over immobilised 14-3-3γ. On the set-up: key to SPR RU (%) mass increase 14-3-3γ/SLP76: Ns: no stabilisation observed in SPR. It counts as binding. Conditions: for Stabilisation in SPR (in words): off-rate / mass on chip versus runs without compound; for SPR RU (%) mass increase 14-3-3γ/SLP76: percentage of SLP76 remained on the chip after the dissociation phase (+240 s). The procedure: Of the 16 hit compounds 13 were tested in an orthogonal SPR assay in which each compound was flowed with SLP76 over 14-3-3γ immobilised on the chip. Runs at different concentrations of compound were compared to the runs in absence of compound. […] The effect of the compounds on 14-3-3γ/SLP76 was measured by calculating the percentage of SLP76 remained on the chip after the dissociation phase and immediately before: RU (%) = RU 5 s before dissociation/RU +240 s after dissociation. Dose–response curves were extrapolated from those sensorgrams plotting the RU (%) mass increase over the increase in compound concentrations.
SPR experiments were performed on a Biacore T200 (Cytiva). The Sensor Chip NTA was validated as previously reported by Soini et al.[63] A DMSO tolerance at 2% and 5% was performed in the same way (Fig. S1 ^†).
For compounds testing, the compounds were preincubated with SLP76, in final DMSO concentration of 5%. The compounds were tested at a single concentration of 100 μM and at multiple concentrations following a 3-fold dilution from a top concentration of 100 μM with SLP76 at the saturation concentration of 250 nM. A second set of experiments were performed at multiple concentrations of compound following a 3-fold dilution from a top concentration of 200 μM with SLP76 around the KD concentration of 40 nM. The SLP76/compound mixtures were flowed over the immobilised 14-3-3γ at 30 μL min^−1 for 180 s before allowing dissociation for 5 minutes. After every cycle, the chip was washed with EDTA and Ni^2+ and 14-3-3γ reinjected for the next cycle. The compound effects were measured by calculating the percentage of SLP76 remained on the chip after the dissociation phase and right before: RU (%) = RU 5 s before dissociation/RU +240 s after dissociation. RU response points relative to +240 s after dissociation were also plotted and an apparent EC50 was estimated. The data were fitted with a “One site – specific” model on GraphPad Prism version 8.1.1 for Windows, GraphPad Software, La Jolla California USA, www.graphpad.com.
(In SPR one partner is held on a chip, and binding of the other changes the refractive index at the surface.)

The target in assay [4] is T1, 14-3-3γ/SLP76. Description: HTRF dose-ratio assay (SLP76 titration at fixed compound concentrations). It counts as binding. The procedure:
Each protein titration was performed in the presence of a fixed concentration of compound. […] Proteins and R18 peptide were diluted from their stock concentration in assay buffer (50 mM Tris pH 7.5, 150 mM NaCl, 5 mM MgCl2, 0.05% v/v Tween-20). Incubation and data acquisition were performed as described above. […] For data analysis the background FRET signal generated by the titration in the presence of R18 10 μM was removed from all values. KD values for each curve were estimated and comparison with the different concentration of compounds were made. The data were fitted with a “One site – specific” model on GraphPad Prism version 8.1.1 for Windows, GraphPad Software, La Jolla California USA, www.graphpad.com. Each data point is the average of a duplicate measurement, standard deviation is reported as error bars.
(TR-FRET usually uses a lanthanide donor and a delayed reading to cut background.)

Assay [5] addresses T2, 14-3-3γ (Homo sapiens, UniProt P61981).
T2 sequence (P61981 1-247): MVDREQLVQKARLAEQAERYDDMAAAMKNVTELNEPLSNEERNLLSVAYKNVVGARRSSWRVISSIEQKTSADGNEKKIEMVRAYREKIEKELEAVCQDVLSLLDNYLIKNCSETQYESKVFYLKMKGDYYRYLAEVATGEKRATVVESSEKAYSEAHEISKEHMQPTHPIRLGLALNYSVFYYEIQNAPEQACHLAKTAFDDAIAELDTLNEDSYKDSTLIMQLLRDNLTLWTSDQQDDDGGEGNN
Description: SPR binding assay of the SLP76-SH2 construct to 14-3-3γ. Conditions: in the presence of 5% DMSO, extrapolated from binding curve. The source says: Fig. 1 Assay set-up for the 14-3-3γ/SLP76 PPI. a) SPR binding assay of the SLP76-SH2 construct binding to 14-3-3γ in the presence of 5% DMSO. The KD value has been extrapolated from the binding curve reported on the right of the sensorgrams. b) HTRF assay set-up. The two proteins of interest, SLP76 and 14-3-3γ have been labelled with […], to generate a suitable matched pair of donor molecule (Tb) and acceptor molecule (AF647). The donor molecule, Tb labelled 14-3-3, is excited at the proper wavelength of 337 nm. When the acceptor is not in the proximity (no binding) no signal is detected. When SLP76 bound to 14-3-3 brings the acceptor molecule AF647 close to the donor, energy transfer occurs between the fluorophores pair. A radiation with the wavelength of 665 nm is consequently emitted to generate a read-out (665/620 nm). All HTRF protein systems used in this work are reported in the legend.
SPR experiments were performed on a Biacore T200 (Cytiva). The Sensor Chip NTA was validated as previously reported by Soini et al.[63] A DMSO tolerance at 2% and 5% was performed in the same way (Fig. S1 ^†). […]
confirming a DMSO tolerance of the 14-3-3γ/SLP76-SH2 system in an SPR context. A KD value calculated by […]

For assay [6], the target named is T2, 14-3-3γ. The arrangement: method as in Soini et al. Conditions: SPR, in absence of DMSO; ref Soini et al.; read-out: KD of SLP76-SH2 binding to 14-3-3γ; cited from earlier work.

T1 sequence (Q13094 356-533, one chain of several): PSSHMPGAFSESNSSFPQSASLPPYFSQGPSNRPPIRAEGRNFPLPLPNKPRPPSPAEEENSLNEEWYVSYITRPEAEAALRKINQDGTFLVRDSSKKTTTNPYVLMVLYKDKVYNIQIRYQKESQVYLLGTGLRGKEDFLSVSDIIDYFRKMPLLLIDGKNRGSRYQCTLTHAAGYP
Chain of 14-3-3ζ/p27 (P63104 whole entry): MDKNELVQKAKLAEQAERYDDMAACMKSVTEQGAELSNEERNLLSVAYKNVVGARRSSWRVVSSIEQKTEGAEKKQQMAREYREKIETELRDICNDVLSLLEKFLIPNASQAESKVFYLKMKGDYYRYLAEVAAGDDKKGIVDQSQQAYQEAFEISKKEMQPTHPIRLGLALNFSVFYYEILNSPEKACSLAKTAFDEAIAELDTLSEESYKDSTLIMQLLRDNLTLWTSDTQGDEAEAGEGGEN
Chain of 14-3-3ζ/p27 (P46527 whole entry): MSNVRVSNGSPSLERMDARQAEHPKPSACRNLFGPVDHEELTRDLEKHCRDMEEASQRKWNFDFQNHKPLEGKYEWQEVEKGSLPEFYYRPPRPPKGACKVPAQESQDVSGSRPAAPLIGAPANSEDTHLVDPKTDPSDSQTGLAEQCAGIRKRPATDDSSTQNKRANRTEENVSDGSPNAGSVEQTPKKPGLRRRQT

For the molecule `COc1ccc(C(=O)N2C[C@@H]3CN(CCO3)C(=O)[C@@H]3C[C@@H](CN3Cc3cccnc3)NC(=O)C[C@@H]3O[C@H](C2)[C@@H](O)[C@H]3O)cc1` [Compound 3, (3S,6S,10S,11R,12S,13R,17R)-11,12-dihydroxy-15-(4-methoxybenzoyl)-4-(pyridin-3-ylmethyl)-18,22-dioxa-1,4,7,15-tetrazatetracyclo[15.3.1.13,6.110,13]tricosane-2,8-dione], in assay [1], the “Selectivity between 14-3-3γ/SLP76 and 14-3-3ζ/p27 (in words)” value is given as “selective for the 14-3-3γ/SLP76 system”; the EC50 is greater than 250 µM. In assay [2], the EC50 was 14.4 ± 1.9 µM. Also, in assay [3], the “Stabilisation in SPR (in words)” value is “orthogonally confirmed by SPR; also recorded: orthogonally confirmed in the SPR assay” and the “SPR RU (%) mass increase 14-3-3γ/SLP76” value was found to be 66.9%. Also, the “KD improvement in the SLP76 HTRF assay” value in assay [4] is on record as 10 fold.
In the case of `COc1ccccc1-c1nnc2scnn12` [Compound 9, 3-(2-methoxyphenyl)-[1,2,4]triazolo[3,4-b][1,3,4]thiadiazole], in assay [1], the “Selectivity between 14-3-3γ/SLP76 and 14-3-3ζ/p27 (in words)” value is given as “modest level of selectivity in stabilising 14-3-3ζ/p27 over 14-3-3γ/SLP76”; the EC50 was 5.8 ± 2.2 µM. Also, the EC50 in assay [2] was 24.5 ± 5.8 µM. In assay [3], the “Stabilisation in SPR (in words)” value is listed as “orthogonally confirmed by SPR” and the “SPR RU (%) mass increase 14-3-3γ/SLP76” value was 58.7%.
As for `c1cc(-c2nnc3scnn23)ccn1` [Compound 7, 3-pyridin-4-yl-[1,2,4]triazolo[3,4-b][1,3,4]thiadiazole], in assay [1], the “Stabilisation of 14-3-3ζ/p27 in HTRF (in words)” value is “no measurable modulation” and the EC50 was greater than 250 µM. The EC50 in assay [2] is 5.3 ± 1.9 µM. Moreover, in assay [3], the “Stabilisation in SPR (in words)” value is recorded as “orthogonally confirmed by SPR; also recorded: strong concentration dependence in off-rate” and the “SPR RU (%) mass increase 14-3-3γ/SLP76” value stood at 57.7%. Also, in assay [4], the “KD improvement in the SLP76 HTRF assay” value is on record as “fourfold”.
Turning to `CC1=Nn2c(nnc2-c2ccoc2C)SC1` [Compound 10, 6-methyl-3-(2-methylfuran-3-yl)-7H-[1,2,4]triazolo[3,4-b][1,3,4]thiadiazine], in assay [1], the “Selectivity between 14-3-3γ/SLP76 and 14-3-3ζ/p27 (in words)” value was “modest level of selectivity in stabilising 14-3-3ζ/p27 over 14-3-3γ/SLP76”; the EC50 is 16.5 ± 10.6 µM. Further, the EC50 in assay [2] is 70.1 ± 8.7 µM. For the same molecule, in assay [3], the “Stabilisation in SPR (in words)” value is listed as “no observable stabilisation” and the “SPR RU (%) mass increase 14-3-3γ/SLP76” value is on record as “Ns ^d”.

B1: SLP76-SH2: 20 KDa phosphorylated SLP76 protein construct (pSer376), binding partner of 14-3-3γ (protein)
chain: MPGAFSESNSSFPQSASLPPYFSQGPSNRPPIRAEGRNFPLPLPNKPRPPSPAEEENSLNEEWYVSYITRPEAEAALRKINQDGTFLVRDSSKKTTTNPYVLMVLYKDKVYNIQIRYQKESQVYLLGTGLRGKEDFLSVSDIIDYFRKMPLLLIDGKNRGSRYQCTLTHAAGYP
modifications: phospho-Ser376 (in vitro by HPK1); His6-SUMO tag cleaved; AF647 amine-labelled in HTRF; the segment is inferred to span Ser376 and the C-terminal SH2 domain to t
For orientation: Kd means the free concentration of one partner at which half of the binding sites on the other are occupied at equilibrium, for simple one-to-one binding. Take B1: the Kd in assay [5] was 0.0279 ± 0.0015 µM; in assay [6] it was 0.043 µM.

These data come from article PMC8459327, “Identification of molecular glues of the SLP76/14-3-3 protein–protein interaction” (RSC Medicinal Chemistry, 2021).
